Data on 16 compounds can be found in patent publication US20250215029A1 (Recludix Pharma, Inc., priority 2022, published 2025).

Assay [1] addresses T1, Recombinant STAT3 protein (STAT3 (G127-I722)) (Homo sapiens, UniProt P40763).
T1 construct: Recombinant STAT3 protein (STAT3 (G127-I722))
Briefly: STAT3 Fluorescence Polarization (FP) Assay. The format is binding. As to conditions: STAT3 (G127-I722) 25 nM, probe 5-FAM-GpYLPQTV-NH2 2 nM, 45-minute incubation; read-out: STAT3 (FP assay IC50 class). The essentials:
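Displacement of a fluorescent phosphotyrosine peptide (5-FAM-GpYLPQTV-NH2, 2 nM) from 25 nM recombinant STAT3 G127-I722 was monitored by FP after 45 min at room temperature.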
On the technique in general: In fluorescence polarisation assays a small probe gives low polarisation when free and higher when bound to something large.

Assay [2] deals with T2, Recombinant STAT6 protein (STAT6 (W123-T658)) (Homo sapiens, UniProt P42226).
T2 construct: Recombinant STAT6 protein (STAT6 (W123-T658))
T2 sequence (P42226 123-658): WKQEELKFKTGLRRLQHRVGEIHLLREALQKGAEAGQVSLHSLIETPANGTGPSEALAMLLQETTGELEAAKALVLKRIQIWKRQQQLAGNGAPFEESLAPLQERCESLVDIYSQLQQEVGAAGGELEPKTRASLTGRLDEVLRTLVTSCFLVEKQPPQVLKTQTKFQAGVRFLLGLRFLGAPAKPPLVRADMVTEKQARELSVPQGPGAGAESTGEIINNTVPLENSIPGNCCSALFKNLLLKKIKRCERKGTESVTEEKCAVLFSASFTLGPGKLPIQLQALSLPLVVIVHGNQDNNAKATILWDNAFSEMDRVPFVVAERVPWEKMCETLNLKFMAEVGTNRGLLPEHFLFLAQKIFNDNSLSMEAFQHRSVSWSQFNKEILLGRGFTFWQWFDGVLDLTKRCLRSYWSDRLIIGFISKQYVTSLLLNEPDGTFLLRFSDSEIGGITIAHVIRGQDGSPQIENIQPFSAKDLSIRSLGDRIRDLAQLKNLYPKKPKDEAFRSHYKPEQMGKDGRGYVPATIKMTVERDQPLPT
In words: STAT6 Fluorescence Polarization (FP) Assay. As to conditions: STAT6 (W123-T658) 250 nM, probe 5-FAM-Ap[…]-NH2 2 nM, 45-minute incubation; read-out: STAT6 (FP assay IC50 class). The assay is classed as binding. The essentials:
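STAT6 (W123-T658) at 250 nM was mixed with 2 nM 5-FAM-labeled phosphotyrosine peptide probe in HEPES pH 7.4 buffer with NaCl, EDTA, Tween 20 and DTT, then added to serially diluted compounds at 1% DMSO final. Polarization was read after 45 min at room temperature; IC50 came from nonlinear regression of mP versus log concentration.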

T1 sequence (P40763 127-722): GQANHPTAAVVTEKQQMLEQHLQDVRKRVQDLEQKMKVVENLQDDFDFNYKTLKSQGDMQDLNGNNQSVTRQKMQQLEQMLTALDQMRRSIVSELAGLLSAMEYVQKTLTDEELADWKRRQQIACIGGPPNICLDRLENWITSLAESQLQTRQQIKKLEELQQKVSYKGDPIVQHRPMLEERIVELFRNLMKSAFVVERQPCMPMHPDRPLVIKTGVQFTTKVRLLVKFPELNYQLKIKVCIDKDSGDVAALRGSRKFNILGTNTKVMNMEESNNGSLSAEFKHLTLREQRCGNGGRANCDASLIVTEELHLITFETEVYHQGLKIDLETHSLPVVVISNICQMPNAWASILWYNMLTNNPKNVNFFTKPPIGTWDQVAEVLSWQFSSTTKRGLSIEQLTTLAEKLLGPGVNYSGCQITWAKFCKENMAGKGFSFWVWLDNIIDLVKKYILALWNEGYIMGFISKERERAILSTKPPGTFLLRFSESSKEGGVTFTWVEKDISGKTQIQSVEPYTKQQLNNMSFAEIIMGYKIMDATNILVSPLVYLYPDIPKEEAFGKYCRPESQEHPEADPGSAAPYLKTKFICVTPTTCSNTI

In the case of `O=C(N[C@H]1CCC[C@H]2CC[C@@H](C(=O)N3CC(c4cnccc4N4CC5(COC5)C4)C3)N2C1=O)c1cc2cc(CP(=O)(O)O)ccc2s1` [Compound 704, ((2-(((3S,6S,9aS)-3-(3-(4-(2-oxa-6-azaspiro[3.3]heptan-6-yl)pyridin-3-yl)azetidine-1-carbonyl)-5-oxooctahydro-1H-pyrrolo[1,2-a]azepin-6-yl)carbamoyl)benzo [b]thiophen-5-yl)methyl) phosphonic acid], the IC50 in assay [1] was below 0.1 µM; in assay [2], 3 to 30 µM.

`O=C(N[C@H]1CCC[C@H]2CC[C@@H](C(=O)N3CC(c4cnccc4OCc4ccncc4)C3)N2C1=O)c1cc2cc(C(F)P(=O)(O)O)ccc2s1` (stereo partly drawn) [Compound 705, (fluoro(2-(((3S,6S,9aS)-5-oxo-3-(3-(4-(pyridin-4-ylmethoxy)pyridin-3-yl)azetidine-1-carbonyl)octahydro-1H-pyrrolo[1,2-a]azepin-6-yl)carbamoyl)benzo [b]thiophen-5-yl)methyl) phosphonic acid]: the IC50 in assay [1] is below 0.1 µM; in assay [2], 3 to 30 µM.

For `COc1ccncc1[C@@H]1CCN(C(=O)[C@@H]2CC[C@@H]3CCC[C@H](NC(=O)c4cc5cc(C(F)P(=O)(O)O)ccc5s4)C(=O)N32)C1` (stereo partly drawn) [Compound 706, (fluoro(2-(((3S,6S,9aS)-3-((S)-3-(4-methoxypyridin-3-yl)pyrrolidine-1-carbonyl)-5-oxooctahydro-1H-pyrrolo[1,2-a]azepin-6-yl)carbamoyl)benzo [b]thiophen-5-yl)methyl) phosphonic acid], the results for the IC50 in assay [1] and in assay [2] were below 0.1 µM and 0.3 to 3 µM, respectively.

As to `COc1ccncc1[C@H]1CCN(C(=O)[C@@H]2CC[C@@H]3CCC[C@H](NC(=O)c4cc5cc(C(F)P(=O)(O)O)ccc5s4)C(=O)N32)C1` (stereo partly drawn) [Compound 707, (fluoro(2-(((3S,6S,9aS)-3-((R)-3-(4-methoxypyridin-3-yl)pyrrolidine-1-carbonyl)-5-oxooctahydro-1H-pyrrolo[1,2-a]azepin-6-yl)carbamoyl)benzo [b]thiophen-5-yl)methyl) phosphonic acid], the IC50 in assay [1] is below 0.1 µM; in assay [2], 0.3 to 3 µM.

On to `COc1nn(C)cc1C1CN(C(=O)[C@@H]2CC[C@@H]3CCC[C@H](NC(=O)c4cc5cc(C(F)P(=O)(O)O)ccc5s4)C(=O)N32)C1` (stereo partly drawn) [Compound 714, (fluoro(2-(((3S,6S,9aS)-3-(3-(3-methoxy-1-methyl-1H-pyrazol-4-yl)azetidine-1-carbonyl)-5-oxooctahydro-1H-pyrrolo[1,2-a]azepin-6-yl)carbamoyl)benzo [b]thiophen-5-yl)methyl) phosphonic acid], for which the IC50 in assay [1] was 0.1 to 1 µM; in assay [2], 3 to 30 µM.

With `Cn1cc(C2CN(C(=O)[C@@H]3CC[C@@H]4CCC[C@H](NC(=O)c5cc6cc(C(F)P(=O)(O)O)ccc6s5)C(=O)N43)C2)c(F)n1` (stereo partly drawn) [Compound 715, (fluoro(2-(((3S,6S,9aS)-3-(3-(3-fluoro-1-methyl-1H-pyrazol-4-yl)azetidine-1-carbonyl)-5-oxooctahydro-1H-pyrrolo[1,2-a]azepin-6-yl)carbamoyl)benzo [b]thiophen-5-yl)methyl) phosphonic acid], the IC50 lay within 0.1 to 1 µM in assay [1] and 3 to 30 µM in assay [2].

Take `Cn1cc(C2CN(C(=O)[C@@H]3CC[C@@H]4CCC[C@H](NC(=O)c5cc6cc(C(F)P(=O)(O)O)ccc6s5)C(=O)N43)C2)cn1` (stereo partly drawn) [Compound 716, (fluoro(2-(((3S,6S,9aS)-3-(3-(1-methyl-1H-pyrazol-4-yl)azetidine-1-carbonyl)-5-oxooctahydro-1H-pyrrolo[1,2-a]azepin-6-yl)carbamoyl)benzo [b]thiophen-5-yl)methyl) phosphonic acid]: the figures for the half-inhibitory concentration (IC50) in assay [1] and in assay [2] were 1 to 10 µM and 3 to 30 µM, respectively.

As to `O=C(N[C@H]1CCC[C@H]2CC[C@@H](C(=O)N3CC(c4cncc(Cl)c4F)C3)N2C1=O)c1cc2cc(C(F)P(=O)(O)O)ccc2s1` (stereo partly drawn) [Compound 717, ((2-(((3S,6S,9aS)-3-(3-(5-chloro-4-fluoropyridin-3-yl)azetidine-1-carbonyl)-5-oxooctahydro-1H-pyrrolo[1,2-a]azepin-6-yl)carbamoyl)benzo [b]thiophen-5-yl)fluoromethyl) phosphonic acid], the IC50 in assay [1] is below 0.1 µM; in assay [2] it was 3 to 30 µM.

`O=C(N[C@H]1CCCC[C@H]2CC[C@@H](C(=O)N3CC(Cc4ccccn4)C3)N2C1=O)c1cc2cc(C(F)(F)P(=O)(O)O)ccc2s1` [Compound 718, (difluoro(2-(((3S,6S,10aS)-5-oxo-3-(3-(pyridin-2-ylmethyl)azetidine-1-carbonyl)decahydropyrrolo[1,2-a]azocin-6-yl)carbamoyl)benzo [b]thiophen-5-yl)methyl) phosphonic acid]: the IC50 in assay [1] is below 0.1 µM; in assay [2] it was 0.3 to 3 µM.

For `CS(=N)(=O)c1cnc(C2CN(C(=O)[C@@H]3CC[C@@H]4CCCC[C@H](NC(=O)c5cc6cc(C(F)(F)P(=O)(O)O)ccc6s5)C(=O)N43)C2)nc1` (stereo partly drawn) [Compound 719, (difluoro(2-(((3S,6S,10aS)-3-(3-(5-(S-methylsulfonimidoyl)pyrimidin-2-yl)azetidine-1-carbonyl)-5-oxodecahydropyrrolo [1,2-a]azocin-6-yl)carbamoyl)benzo [b]thiophen-5-yl)methyl) phosphonic acid], the values for the IC50 in assay [1] and in assay [2] were 0.1 to 1 µM and 3 to 30 µM, respectively.

In the case of `O=C(N[C@H]1CCC[C@H]2CC[C@@H](C(=O)N3CC(c4cccnc4)C3)N2C1=O)c1cc2cc(CP(=O)(O)O)ccc2[nH]1` [Compound 720, ((2-(((3S,6S,9aS)-5-oxo-3-(3-(pyridin-3-yl)azetidine-1-carbonyl)octahydro-1H-pyrrolo[1,2-a]azepin-6-yl)carbamoyl)-1H-indol-5-yl)methyl) phosphonic acid], the results for the IC50 in assay [1] and in assay [2] were 1 to 10 µM and 3 to 30 µM, respectively.

With `COC1(c2cncnc2C)CN(C(=O)[C@@H]2CC[C@@H]3CCC[C@H](NC(=O)c4cc5cc(C(F)(F)P(=O)(O)O)ccc5s4)C(=O)N32)C1` [Compound 721, (difluoro(2-(((3S,6S,9aS)-3-(3-methoxy-3-(4-methylpyrimidin-5-yl)azetidine-1-carbonyl)-5-oxooctahydro-1H-pyrrolo[1,2-a]azepin-6-yl)carbamoyl)benzo [b]thiophen-5-yl)methyl) phosphonic acid], the concentration for half-maximal inhibition (IC50) is 0.1 to 1 µM in assay [1] and 3 to 30 µM in assay [2].

As for `COC1(c2cnccc2C)CN(C(=O)[C@@H]2CC[C@@H]3CCC[C@H](NC(=O)c4cc5cc(C(F)(F)P(=O)(O)O)ccc5s4)C(=O)N32)C1` [Compound 722, (difluoro(2-(((3S,6S,9aS)-3-(3-methoxy-3-(4-methylpyridin-3-yl)azetidine-1-carbonyl)-5-oxooctahydro-1H-pyrrolo[1,2-a]azepin-6-yl)carbamoyl)benzo [b]thiophen-5-yl)methyl) phosphonic acid], the 50% inhibitory concentration (IC50) is 0.1 to 1 µM in assay [1] and 3 to 30 µM in assay [2].

For `COC1(c2cncnc2)CN(C(=O)[C@@H]2CC[C@@H]3CCC[C@H](NC(=O)c4cc5cc(C(F)(F)P(=O)(O)O)ccc5s4)C(=O)N32)C1` [Compound 723, (difluoro(2-(((3S,6S,9aS)-3-(3-methoxy-3-(pyrimidin-5-yl)azetidine-1-carbonyl)-5-oxooctahydro-1H-pyrrolo[1,2-a]azepin-6-yl)carbamoyl)benzo [b]thiophen-5-yl)methyl) phosphonic acid], the half-maximal inhibitory concentration (IC50) was in the range of 0.1 to 1 µM in assay [1] and 3 to 30 µM in assay [2].

In the case of `O=C(N[C@H]1CCCC[C@H]2CC[C@@H](C(=O)N3CC(Oc4cccnc4)C3)N2C1=O)c1cc2cc(C(F)(F)P(=O)(O)O)ccc2s1` [Compound 724, (difluoro(2-(((3S,6S,10aS)-5-oxo-3-(3-(pyridin-3-yloxy)azetidine-1-carbonyl)decahydropyrrolo[1,2-a]azocin-6-yl)carbamoyl)benzo [b]thiophen-5-yl)methyl) phosphonic acid], the IC50 was below 0.1 µM in assay [1] and 0.3 to 3 µM in assay [2].

Regarding `O=C(N[C@H]1CCCC[C@H]2CC[C@@H](C(=O)N[C@H](CO)Cc3cccnc3)N2C1=O)c1cc2cc(C(F)(F)P(=O)(O)O)ccc2s1` [Compound 725, (difluoro(2-(((3S,6S,10aS)-3-(((S)-1-hydroxy-3-(pyridin-3-yl)propan-2-yl)carbamoyl)-5-oxodecahydropyrrolo [1,2-a]azocin-6-yl)carbamoyl)benzo [b]thiophen-5-yl)methyl) phosphonic acid], the IC50 in assay [1] fell in the range of 0.1 to 1 µM; in assay [2] it was 3 to 30 µM.

What is called IC50 is the concentration that inhibits the measured activity by half.
